Reference: patent publication US20080293696A1, “2-Aminoarylcarboxamides Useful as Cancer Chemotherapeutic Agents” (Bayer Pharmaceuticals Corporation, priority 2004, published 2008)
Structures can show the parent of a compound that is named as a salt.

Tested on: PAKT/PKB (p-(S473) AKT) in H209 small cell lung carcinoma cells stimulated with Stem Cell Factor
Assay: PAKT/PKB Cytoblot Assay with H209 cells (SCF-stimulated p-(S473) AKT)
Format: cell-based
Conditions: Homo sapiens, NCI-H209, compound 1 hour, SCF 25 ng/mL 5 minutes
Outline: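 H209 SCLC cells kept overnight in RPMI with 0.1% BSA were pretreated 1 h at 37 °C with compound (0.01–10 μM final), then stimulated with SCF 25 ng/mL for 5 min. After formaldehyde/methanol fixation, p-(S473) AKT was detected in-cell with HRP secondary and ECL chemiluminescence, and IC50 was derived.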

[1] = group: between 500 nM and 1 μM (units in value)

| IC50 (group: less than 500 nM) | IC50 [1] | Structure (SMILES) |
| --- | --- | --- |
| < 500 nM | – | COc1ccc(OCC(O)CNC(=O)c2cc(CNc3ccccc3C(=O)Nc3ccc4c(c3)OC(F)(F)O4)ccn2)cc1 (centres unmarked) [Example 132, 4-{[(2-{[(2,2-difluoro-1,3-benzodioxol-5-yl)amino]carbonyl}phenyl)amino]methyl}-N-[2-hydroxy-3-(4-methoxyphenoxy)propyl]pyridine-2-carboxamide] |
| < 500 nM | – | O=C(NCc1ccc(N2CCOCC2)cc1)c1cc(CNc2ccccc2C(=O)Nc2ccc3c(c2)OC(F)(F)O3)ccn1 [Example 133, 4-{[(2-{[(2,2-difluoro-1,3-benzodioxol-5-yl)amino]carbonyl}phenyl)amino]methyl}-N-(4-morpholin-4-ylbenzyl)pyridine-2-carboxamide] |
| < 500 nM | – | O=C(Nc1ccc2c(c1)OC(F)(F)O2)c1ccccc1NCc1ccnc(NCCO)c1 [Example 134, N-(2,2-difluoro-1,3-benzodioxol-5-yl)-2-[({2-[(2-hydroxyethyl)amino]pyridin-4-yl}methyl)amino]benzamide trifluoroacetate (salt)] |
| < 500 nM | – | COCCNc1cc(CNc2ccccc2C(=O)Nc2ccc3c(c2)OC(F)(F)O3)ccn1 [Example 135, N-(2,2-difluoro-1,3-benzodioxol-5-yl)-2-[({2-[(2-methoxyethyl)amino]pyridin-4-yl}methyl)amino]benzamide trifluoroacetate] |
| < 500 nM | – | COCCCNc1cc(CNc2ccccc2C(=O)Nc2ccc3c(c2)OC(F)(F)O3)ccn1 [Example 136, N-(2,2-difluoro-1,3-benzodioxol-5-yl)-2-[({2-[(3-methoxypropyl)amino]pyridin-4-yl}methyl)amino]benzamide trifluoroacetate] |
| < 500 nM | – | O=C(Nc1ccc2c(c1)OC(F)(F)O2)c1ccccc1NCc1ccnc(NCCCO)c1 [Example 137, N-(2,2-difluoro-1,3-benzodioxol-5-yl)-2-[({2-[(3-hydroxypropyl)amino]pyridin-4-yl}methyl)amino]benzamide trifluoroacetate(salt)] |
| < 500 nM | – | O=C(Nc1ccc2c(c1)OC(F)(F)O2)c1ccccc1NCc1ccnc(NCCOCCO)c1 [Example 138, N-(2,2-difluoro-1,3-benzodioxol-5-yl)-2-{[(2-{[2-(2-hydroxyethoxy)ethyl]amino}pyridin-4-yl)methyl]amino}benzamide trifluoroacetate(salt)] |
| < 500 nM | – | CNc1cc(CNc2ccccc2C(=O)Nc2ccc3c(c2)OC(F)(F)O3)ccn1 [Example 139, N-(2,2-difluoro-1,3-benzodioxol-5-yl)-2-({[2-(methylamino)pyridin-4-yl]methyl}amino)benzamide trifluoroacetate] |
| < 500 nM | – | CC(C)OCCCNc1cc(CNc2ccccc2C(=O)Nc2ccc3c(c2)OC(F)(F)O3)ccn1 [Example 140, N-(2,2-difluoro-1,3-benzodioxol-5-yl)-2-[({2-[(3-isopropoxypropyl)amino]pyridin-4-yl}methyl)amino]benzamide trifluoroacetate] |
| < 500 nM | – | CC(C)(CO)CNc1cc(CNc2ccccc2C(=O)Nc2ccc3c(c2)OC(F)(F)O3)ccn1 [Example 141, N-(2,2-difluoro-1,3-benzodioxol-5-yl)-2-[({2-[(3-hydroxy-2,2-dimethylpropyl)amino]pyridin-4-yl}methyl)amino]benzamide trifluoroacetate(salt)] |
| – | 500 to 1000 nM | NCC(O)CNc1cc(CNc2ccccc2C(=O)Nc2ccc3c(c2)OC(F)(F)O3)ccn1 (centres unmarked) [Example 142, 2-[({2-[(3-amino-2-hydroxypropyl)amino]pyridin-4-yl}methyl)amino]-N-(2,2-difluoro-1,3-benzodioxol-5-yl)benzamidebis(trifluoroacetate)(salt)] |
| < 500 nM | – | CN(C)CCCNc1cc(CNc2ccccc2C(=O)Nc2ccc3c(c2)OC(F)(F)O3)ccn1 [Example 143, N-(2,2-difluoro-1,3-benzodioxol-5-yl)-2-{[(2-{[3-(dimethylamino)propyl]amino}pyridin-4-yl)methyl]amino}benzamidebis(trifluoroacetate)] |
| < 500 nM | – | O=C(Nc1ccc2c(c1)OC(F)(F)O2)c1ccccc1NCc1ccnc(NCCCN2CCOCC2)c1 [Example 144, N-(2,2-difluoro-1,3-benzodioxol-5-yl)-2-[({2-[(3-morpholin-4-ylpropyl)amino]pyridin-4-yl}methyl)amino]benzamidebis(trifluoroacetate)] |
| < 500 nM | – | CN1CCCC1CCNc1cc(CNc2ccccc2C(=O)Nc2ccc3c(c2)OC(F)(F)O3)ccn1 (centres unmarked) [Example 145, N-(2,2-difluoro-1,3-benzodioxol-5-yl)-2-{[(2-{[2-(1-methylpyrrolidin-2-yl)ethyl]amino}pyridin-4-yl)methyl]amino}benzamidebis(trifluoroacetate)] |
| < 500 nM | – | O=C(Nc1ccc2c(c1)OC(F)(F)O2)c1ccccc1NCc1ccnc(NCCCn2ccnc2)c1 [Example 146, N-(2,2-difluoro-1,3-benzodioxol-5-yl)-2-{[(2-{[3-(1H-imidazol-1-yl)propyl]amino}pyridin-4-yl)methyl]amino}benzamidebis(trifluoroacetate)] |
| < 500 nM | – | O=C(Nc1ccc2c(c1)OC(F)(F)O2)c1ccccc1NCc1ccnc(NCCc2c[nH]cn2)c1 [Example 147, N-(2,2-difluoro-1,3-benzodioxol-5-yl)-2-{[(2-{[2-(1H-imidazol-4-yl)ethyl]amino}pyridin-4-yl)methyl]amino}benzamidebis(trifluoroacetate)] |
| < 500 nM | – | O=C(Nc1ccc2c(c1)OC(F)(F)O2)c1ccccc1NCc1ccnc(NCC2CCCO2)c1 (centres unmarked) [Example 148, N-(2,2-difluoro-1,3-benzodioxol-5-yl)-2-[({2-[(tetrahydrofuran-2-ylmethyl)amino]pyridin-4-yl}methyl)amino]benzamide trifluoroacetate] |
| < 500 nM | – | O=C(Nc1ccc2c(c1)OC(F)(F)O2)c1ccccc1NCc1ccnc(NCC(O)CO)c1 (centres unmarked) [Example 149, N-(2,2-difluoro-1,3-benzodioxol-5-yl)-2-[({2-[(2,3-dihydroxypropyl)amino]pyridin-4-yl}methyl)amino]benzamidetrifluoroacetate (salt)] |
| – | 500 to 1000 nM | O=C(Nc1ccc2c(c1)OC(F)(F)O2)c1ccccc1NCc1ccnc(NCCc2ccccc2)c1 [Example 150, N-(2,2-difluoro-1,3-benzodioxol-5-yl)-2-[({2-[(2-phenylethyl)amino]pyridin-4-yl}methyl)amino]benzamidetrifluoroacetate] |
| < 500 nM | – | COC(C)C(=O)Nc1cc(CNc2ccccc2C(=O)Nc2ccc3c(c2)OC(F)(F)O3)ccn1 (centres unmarked) [Example 151, N-(2,2-difluoro-1,3-benzodioxol-5-yl)-2-[({2-[(2-methoxypropanoyl)amino]pyridin-4yl}methyl)amino]benzamide] |
| < 500 nM | – | CC(=O)Nc1cc(CNc2ccccc2C(=O)Nc2ccc3c(c2)OC(F)(F)O3)ccn1 [Example 152, 2-({[2-(acetylamino)pyridin-4-yl]methyl}amino)-N-(2,2-difluoro-1,3-benzodioxol-5-yl)benzamide] |
| < 500 nM | – | Nc1cc(CNc2ccccc2C(=O)Nc2ccc3c(c2)OC(F)(F)O3)ccn1 [Example 153, 2-{[(2-aminopyridin-4-yl)methyl]amino}-N-(2,2-difluoro-1,3-benzodioxol-5-yl)benzamide] |
| – | 500 to 1000 nM | COCCOCC(=O)Nc1cc(CNc2ccccc2C(=O)Nc2ccc3c(c2)OC(F)(F)O3)ccn1 [Example 154, N-(2,2-difluoro-1,3-benzodioxol-5-yl)-2-{[(2{[(2-methoxyethoxy)acetyl]amino}pyridin-4-yl)methyl]amino}benzamide] |
